The values that follow come from PMC7017409 (ACS Omega, 2020).

In this experiment the target is T1, electric eel AChE (eeAChE) (Electrophorus electricus, UniProt O42275).
T1 construct: purchased type VI-S
Nature of the experiment: biochemical. The format is biochemical. The protocol: A UV–vis spectrophotometry-based assay was conducted to calculate the IC50 values for the diastereomeric mixtures (Table 6), according to Ellman et al.[37] and Mohamed et al.[38]
All of these solutions were prepared freshly directly before the assay was run. In 96-well plates, 160 μL of the 1.5 mM DTNB solution was first added, followed by 10 μL of different concentrations of test compounds. Then, a 0.22 U/mL enzyme solution was added (50 μL) and incubated at room temperature for 7 min. The background absorbance was measured at a wavelength of 412 nm on a POLARstar OPTIMA (BMG Labtech) microplate reader. The addition of 30 μL of the 15 mM ATCI solution initiated the enzymatic reaction, and the time elapsed between the beginning of the pipetting and the first measurement (t = 0) was noted and kept consistently at 2 min. Further kinetic measurements were made at different time intervals (t = 1, 2, 3, 4, 5 min) after a short episode of shaking (10 s). Each experiment was carried out in triplicate. Various control incubations containing 10 μL of methanol were run alongside the test compounds on each plate.

T1 sequence (O42275 24-633): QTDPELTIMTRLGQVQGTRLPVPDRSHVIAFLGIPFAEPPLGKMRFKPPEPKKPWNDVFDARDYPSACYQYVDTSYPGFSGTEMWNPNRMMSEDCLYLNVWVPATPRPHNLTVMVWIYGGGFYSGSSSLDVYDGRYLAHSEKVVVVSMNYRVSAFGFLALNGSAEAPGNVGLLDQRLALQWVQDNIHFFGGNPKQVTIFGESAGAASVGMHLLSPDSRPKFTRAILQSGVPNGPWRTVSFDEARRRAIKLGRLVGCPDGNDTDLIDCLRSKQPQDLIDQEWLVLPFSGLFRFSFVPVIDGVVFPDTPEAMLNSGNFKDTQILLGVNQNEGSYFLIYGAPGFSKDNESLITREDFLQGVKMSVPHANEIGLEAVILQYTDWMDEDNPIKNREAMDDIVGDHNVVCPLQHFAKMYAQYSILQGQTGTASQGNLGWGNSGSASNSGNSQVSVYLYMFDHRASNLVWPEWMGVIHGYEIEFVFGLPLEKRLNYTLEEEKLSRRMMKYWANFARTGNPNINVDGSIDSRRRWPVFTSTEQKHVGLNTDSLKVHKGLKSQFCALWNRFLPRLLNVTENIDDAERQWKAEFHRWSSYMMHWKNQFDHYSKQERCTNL

By IC50 is commonly meant the concentration that inhibits the measured activity by half. A higher IC50 goes with lower potency. `COc1cc2c(cc1OC)C(=O)C(C[C@@H]1CCN([C@@H](C)c3ccccc3)[C@H](C)C1)C2` (stereo partly drawn) [2R,4R-4+4’d, R-5,6-Dimethoxy-2-((2R,4R-2-methyl-1-(S-1-phenylethyl)piperidin-4-yl)-methyl)-2,3-dihydro-1H-inden-1-one (4d) and S-5,6-Dimethoxy-2-((2R,4R-2-methyl-1-(S-1-phenylethyl)piperidin-4-yl)-methyl)-2,3-dihydro-1H-inden-1-one (4′d)] gave an IC50 of 13.1 ± 0.47 µM.

For the compound `COc1cc2c(cc1OC)C(=O)C(C[C@H]1CCN([C@@H](C)c3ccccc3)[C@H](C)C1)C2` (stereo partly drawn) [2R,4S-4+4’c, R-5,6-Dimethoxy-2-((2R,4S-2-methyl-1-(S-1-phenylethyl)piperidin-4-yl)-methyl)-2,3-dihydro-1H-inden-1-one (4c) and S-5,6-Dimethoxy-2-((2R,4S-2-methyl-1-(S-1-phenylethyl)piperidin-4-yl)-methyl)-2,3-dihydro-1H-inden-1-one (4′c)], the IC50 was 24.3 ± 1.32 µM.

`COc1cc2c(cc1OC)C(=O)C(C[C@@H]1CCN([C@@H](C)c3ccccc3)[C@@H](C)C1)C2` (stereo partly drawn) [2S,4R-4+4’b, R-5,6-Dimethoxy-2-((2S,4R-2-methyl-1-(S-1-phenylethyl)piperidin-4-yl)-methyl)-2,3-dihydro-1H-inden-1-one (4b) and S-5,6-Dimethoxy-2-((2S,4R-2-methyl-1-(S-1-phenylethyl)piperidin-4-yl)-methyl)-2,3-dihydro-1H-inden-1-one (4′b)]: the IC50 worked out at 8.82 ± 0.21 µM.

`COc1cc2c(cc1OC)C(=O)C(C[C@H]1CCN([C@@H](C)c3ccccc3)[C@@H](C)C1)C2` (stereo partly drawn) [2S,4S-4+4’a, R-5,6-Dimethoxy-2-((2S,4S-2-methyl-1-(S-1-phenylethyl)piperidin-4-yl)-methyl)-2,3-dihydro-1H-inden-1-one (4a) and y-5,6-Dimethoxy-2-((2S,4S-2-methyl-1-(S-1-phenylethyl)piperidin-4-yl)-methyl)-2,3-dihydro-1H-inden-1-one (4′a)] yielded an IC50 of 1.01 ± 0.03 µM. Besides, the “times more active than the 2R,4S-anti-substituted analogues 4 + 4′c (IC50 ratio)” value (eeAChE IC50, syn versus anti) is listed as “approximately 24 times”.

`COc1cc2c(cc1OC)C(=O)C(CC1CCN([C@@H](C)c3ccccc3)CC1)C2` (stereo partly shown) [19+19’, R-5,6-Dimethoxy-2-((1-(S-1-phenylethyl)piperidin-4-yl)methyl)-2,3-dihydro-1H-inden-1-one (19) and S-5,6-Dimethoxy-2-((1-(S-1-phenylethyl)piperidin-4-yl)methyl)-2,3-dihydro-1H-inden-1-one (19′)] came in with an IC50 of 1.83 ± 0.04 µM. For the same compound, the “times less active than donepezil 1 (IC50 ratio)” value (eeAChE IC50 compared with donepezil 1) is given as “approximately 27 times”.
